# Experimental data taken from the supplement of paper PMC10307832.
# Columns and labels:
# Assay in all cases: relative viability (nuclei count vs DMSO), 5 days (fraction); higher = more cells survive
# HCC-15 = tested on: HCC-15
# Outline: (§1)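 Relative viability divides the nuclei count in treated wells by that in vehicle wells. Lung cancer cell lines were seeded in 1536-well plates, dosed by pin tool the next day, and fixed and stained after 5 days in one step with final 0.05% Triton X-100, 1% formaldehyde and 1 ug/ml Hoechst. Dosing was a single drug or a fixed anchor-drug dose plus five library-drug doses (not always all listed) in √10 steps, and values are medians of duplicate plates imaged at 4×.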
# NCI-H2126 = tested on: NCI-H2126
# Outline: as §1
# SW 1573 = tested on: SW 1573
# Outline: as §1
# PC-14 = tested on: PC-14
# Outline: as §1
# UMC-11 = tested on: UMC-11
# Outline: as §1
# NCI-H358 = tested on: NCI-H358
# Outline: as §1
# ABC-1 = tested on: ABC-1
# Outline: as §1
# NCI-H650 = tested on: NCI-H650
# Outline: as §1
# NCI-H838 = tested on: NCI-H838
# Outline: as §1
# LU99A = tested on: LU99A
# Outline: as §1
# NCI-H1651 = tested on: NCI-H1651
# Outline: as §1
# NCI-H2347 = tested on: NCI-H2347
# Outline: as §1
# NCI-H1915 = tested on: NCI-H1915
# Outline: as §1
# NCI-H2085 = tested on: NCI-H2085
# Outline: as §1
# HARA = tested on: HARA
# Outline: as §1
# HCC-78 = tested on: HCC-78
# Outline: as §1
# NCI-H1993 = tested on: NCI-H1993
# Outline: as §1
# LC-2-ad = tested on: LC-2-ad
# Outline: as §1
# NCI-H460 = tested on: NCI-H460
# Outline: as §1
# COR-L23 = tested on: COR-L23
# Outline: as §1
# NCI-H2342 = tested on: NCI-H2342
# Outline: as §1
# NCI-H522 = tested on: NCI-H522
# Outline: as §1
# NCI-H2009 = tested on: NCI-H2009
# Outline: as §1
# EPLC-272H = tested on: EPLC-272H
# Outline: as §1
structure (smiles),measurement,setting,value
Clc1ccc(Nc2nnc(Cc3ccncc3)c3ccccc23)cc1 [Vatalanib] + N=C(N)NC(=N)NCCc1ccccc1 [Phenformin] (partner 250 µM),relative viability,HCC-15; first compound 0.04 µM,0.487
same,relative viability,HCC-15; first compound 0.1265 µM,0.46
same,relative viability,HCC-15; first compound 0.4 µM,0.441
same,relative viability,HCC-15; first compound 1.265 µM,0.443
same,relative viability,HCC-15; first compound 4 µM,0.457
same,relative viability,NCI-H2126; first compound 0.04 µM,0.508
same,relative viability,NCI-H2126; first compound 0.1265 µM,0.521
same,relative viability,NCI-H2126; first compound 0.4 µM,0.453
same,relative viability,NCI-H2126; first compound 1.265 µM,0.487
same,relative viability,NCI-H2126; first compound 4 µM,0.546
same,relative viability,SW 1573; first compound 0.04 µM,0.402
same,relative viability,SW 1573; first compound 0.1265 µM,0.374
same,relative viability,SW 1573; first compound 0.4 µM,0.368
same,relative viability,SW 1573; first compound 1.265 µM,0.324
same,relative viability,SW 1573; first compound 4 µM,0.347
same,relative viability,PC-14; first compound 0.04 µM,0.552
same,relative viability,PC-14; first compound 0.1265 µM,0.466
same,relative viability,PC-14; first compound 1.265 µM,0.458
same,relative viability,PC-14; first compound 4 µM,0.541
same,relative viability,UMC-11; first compound 0.04 µM,0.311
same,relative viability,UMC-11; first compound 0.1265 µM,0.328
same,relative viability,UMC-11; first compound 0.4 µM,0.319
same,relative viability,UMC-11; first compound 1.265 µM,0.298
same,relative viability,UMC-11; first compound 4 µM,0.333
same,relative viability,NCI-H358; first compound 0.04 µM,0.32
same,relative viability,NCI-H358; first compound 0.1265 µM,0.304
same,relative viability,NCI-H358; first compound 0.4 µM,0.381
same,relative viability,NCI-H358; first compound 1.265 µM,0.367
same,relative viability,NCI-H358; first compound 4 µM,0.326
same,relative viability,ABC-1; first compound 0.04 µM,0.241
same,relative viability,ABC-1; first compound 0.1265 µM,0.242
same,relative viability,ABC-1; first compound 1.265 µM,0.262
same,relative viability,ABC-1; first compound 4 µM,0.222
same,relative viability,NCI-H650; first compound 0.04 µM,0.473
same,relative viability,NCI-H650; first compound 0.1265 µM,0.427
same,relative viability,NCI-H650; first compound 1.265 µM,0.446
same,relative viability,NCI-H650; first compound 4 µM,0.439
same,relative viability,NCI-H838; first compound 0.04 µM,0.607
same,relative viability,NCI-H838; first compound 0.1265 µM,0.476
same,relative viability,NCI-H838; first compound 0.4 µM,0.69
same,relative viability,NCI-H838; first compound 1.265 µM,0.563
same,relative viability,NCI-H838; first compound 4 µM,0.548
same,relative viability,LU99A; first compound 0.04 µM,0.839
same,relative viability,LU99A; first compound 0.1265 µM,0.764
same,relative viability,LU99A; first compound 0.4 µM,1.04
same,relative viability,LU99A; first compound 1.265 µM,0.705
same,relative viability,LU99A; first compound 4 µM,0.813
same,relative viability,NCI-H1651; first compound 0.04 µM,0.342
same,relative viability,NCI-H1651; first compound 0.1265 µM,0.29
same,relative viability,NCI-H1651; first compound 0.4 µM,0.311
same,relative viability,NCI-H1651; first compound 1.265 µM,0.312
same,relative viability,NCI-H1651; first compound 4 µM,0.405
same,relative viability,NCI-H2347; first compound 0.04 µM,0.323
same,relative viability,NCI-H2347; first compound 0.1265 µM,0.426
same,relative viability,NCI-H2347; first compound 0.4 µM,0.401
same,relative viability,NCI-H2347; first compound 1.265 µM,0.266
same,relative viability,NCI-H2347; first compound 4 µM,0.389
same,relative viability,NCI-H1915; first compound 0.04 µM,0.374
same,relative viability,NCI-H1915; first compound 0.1265 µM,0.345
same,relative viability,NCI-H1915; first compound 0.4 µM,0.399
same,relative viability,NCI-H1915; first compound 1.265 µM,0.38
same,relative viability,NCI-H1915; first compound 4 µM,0.371
same,relative viability,NCI-H2085; first compound 0.04 µM,0.701
same,relative viability,NCI-H2085; first compound 0.1265 µM,0.668
same,relative viability,NCI-H2085; first compound 0.4 µM,0.734
same,relative viability,NCI-H2085; first compound 1.265 µM,0.724
same,relative viability,NCI-H2085; first compound 4 µM,0.632
same,relative viability,HARA; first compound 0.04 µM,0.452
same,relative viability,HARA; first compound 0.1265 µM,0.397
same,relative viability,HARA; first compound 0.4 µM,0.497
same,relative viability,HARA; first compound 1.265 µM,0.42
same,relative viability,HARA; first compound 4 µM,0.354
same,relative viability,HCC-78; first compound 0.04 µM,0.589
same,relative viability,HCC-78; first compound 0.1265 µM,0.613
same,relative viability,HCC-78; first compound 0.4 µM,0.631
same,relative viability,HCC-78; first compound 1.265 µM,0.649
same,relative viability,HCC-78; first compound 4 µM,0.575
same,relative viability,NCI-H1993; first compound 0.04 µM,0.492
same,relative viability,NCI-H1993; first compound 0.1265 µM,0.533
same,relative viability,NCI-H1993; first compound 0.4 µM,0.601
same,relative viability,NCI-H1993; first compound 1.265 µM,0.482
same,relative viability,NCI-H1993; first compound 4 µM,0.534
same,relative viability,LC-2-ad; first compound 0.04 µM,0.652
same,relative viability,LC-2-ad; first compound 0.1265 µM,0.553
same,relative viability,LC-2-ad; first compound 1.265 µM,0.517
same,relative viability,LC-2-ad; first compound 4 µM,0.55
same,relative viability,NCI-H460; first compound 0.04 µM,0.582
same,relative viability,NCI-H460; first compound 0.1265 µM,0.539
same,relative viability,NCI-H460; first compound 0.4 µM,0.556
same,relative viability,NCI-H460; first compound 1.265 µM,0.51
same,relative viability,NCI-H460; first compound 4 µM,0.432
same,relative viability,COR-L23; first compound 0.04 µM,0.442
same,relative viability,COR-L23; first compound 0.1265 µM,0.43
same,relative viability,COR-L23; first compound 0.4 µM,0.467
same,relative viability,COR-L23; first compound 1.265 µM,0.389
same,relative viability,COR-L23; first compound 4 µM,0.402
same,relative viability,NCI-H2342; first compound 0.04 µM,0.573
same,relative viability,NCI-H2342; first compound 0.1265 µM,0.477
same,relative viability,NCI-H2342; first compound 0.4 µM,0.461
same,relative viability,NCI-H2342; first compound 1.265 µM,0.652
same,relative viability,NCI-H2342; first compound 4 µM,0.53
same,relative viability,NCI-H522; first compound 0.04 µM,0.699
same,relative viability,NCI-H522; first compound 0.1265 µM,0.531
same,relative viability,NCI-H522; first compound 0.4 µM,0.673
same,relative viability,NCI-H522; first compound 1.265 µM,0.623
same,relative viability,NCI-H522; first compound 4 µM,0.597
same,relative viability,NCI-H2009; first compound 0.04 µM,0.578
same,relative viability,NCI-H2009; first compound 0.1265 µM,0.439
same,relative viability,NCI-H2009; first compound 0.4 µM,0.464
same,relative viability,NCI-H2009; first compound 1.265 µM,0.406
same,relative viability,NCI-H2009; first compound 4 µM,0.391
same,relative viability,EPLC-272H; first compound 0.04 µM,0.324
same,relative viability,EPLC-272H; first compound 0.1265 µM,0.323
same,relative viability,EPLC-272H; first compound 0.4 µM,0.275
same,relative viability,EPLC-272H; first compound 1.265 µM,0.349
same,relative viability,EPLC-272H; first compound 4 µM,0.348
